We go through 2 compounds from patent publication US20130091932A1, “Process and Method for Broad Spectrum Amino Acid Challenged Urinary Organic Acids” (priority 2011, published 2013).

Data set [1] has as its system urinary metabolic markers. In words: 38-person study: amino acid challenge, overnight urinary organic acid profile pre vs post challenge. The class given is in vivo, human. As to conditions: in some subjects. Here is the method:
An initial pilot study was conducted using 3 subjects. A second study was conducted using 38 adult subjects who were chosen as having no diagnosed diseases and normal work habits. […] On two consecutive nights urine was collected for performing analysis of 46 compounds included in a profile of organic acids. On the second night, a single bolus of crystalline pure L-amino acids was consumed dissolved in water. All amino acids used were L-stereoisomers unless designated otherwise by the “D-”prefix. In the 3-person pilot, dosing included tyrosine, valine, leucine, isoleucine, histidine, and tryptophan as free-form or chloride salts at a total load of approximately 400 mg/kg body weight. For the 38-subject study, the dosing formula included a similar mixture containing alanine, valine, leucine, isoleucine, histidine, and tryptophan. Table 1 summarizes the amino acids included in the challenge formula, urinary metabolic markers affected and related nutrients or metabolic effects. The Amino acid challenge dose protocol was as follows. For 2 consecutive nights, participants collected overnight urine specimens. On the second night, before going to bed, they took approximately 400 mg/kg body weight of the challenge dose of amino acids. […]

The conditions of data set [2]: up to 15 g, human studies; cited from earlier work.

As to `C[C@H](N)C(=O)O` [L-alanine], the “levels of pyruvate, succinate, fumarate and malate” value in data set [1] is “increased levels”. `N[C@@H](Cc1c[nH]cn1)C(=O)O` [L-histidine]: the safety of administration result in data set [2] is “administered safely”.
